Assay results: patent EP0114887B1, “POLYPEPTIDE” (LA JOLLA CANCER RESEARCH FOUNDATION, priority 1982, dated 1990)
Peptide text beside a SMILES is read from it.

Legend:
cells [1] = test: Cell-attachment activity of the synthetic fragment compared with the entire polypeptide; assay type: cell-based
cells [2] = test: Cell attachment to peptide-coupled Sepharose (agarose) beads; assay type: cell-based; details: coupled to cyanogen bromide-activated agarose beads (Sepharose), sterilized by autoclaving
Protocol: The four synthetic peptides as well as the 11.5-kDal fragment and a 200-kDal fragment of fibronectin were coupled to cyanogen bromide-activated Sepharose-6MB beads (Pharmacia) according to the manufacturer's instructions. The peptides were first reduced as described above and used at 8 mg of peptide per ml of Sepharose. Albumin-coated beads and beads derivatized with ethanolamine were used as controls.
The cell attachment assays were performed as described (Ruoslahti, E. et al (1981) Methods Enzymology82,803-831) with human fibroblasts or normal rat kidney (NRK) cells. Briefly, 100 I of a single- cell suspension containing […] was placed in a flat-bottom microtiter well that had been coated with one of the peptides or with fibronectin. After 1 h at 37°C, unattached cells were washed away and attached cells were fixed and stained for counting. In some experiments soluble peptide was added to the medium to determine if its presence during the attachment would have an inhibitory effect. Cell attachment to the agarose beads was performed on a layer of beads in the bottom of a round-bottom microtiter well exactly as described above.

CC[C@H](C)[C@H](NC(=O)[C@H](CO)NC(=O)[C@@H](NC(=O)[C@@H]1CCCN1C(=O)[C@H](CCCCN)NC(=O)[C@H](CO)NC(=O)[C@H](CO)NC(=O)[C@H](C)NC(=O)[C@@H]1CCCN1C(=O)[C@H](CO)NC(=O)[C@H](CC(=O)O)NC(=O)CNC(=O)[C@H](CCCNC(=N)N)NC(=O)CNC(=O)[C@@H](NC(=O)[C@@H](NC(=O)[C@H](C)NC(=O)[C@@H](N)Cc1ccc(O)cc1)C(C)C)[C@@H](C)O)[C@@H](C)CC)C(=O)N[C@@H](CC(N)=O)C(=O)N[C@@H](Cc1ccc(O)cc1)C(=O)N[C@@H](CCCNC(=N)N)C(=O)N[C@H](C(=O)N[C@@H](CCC(=O)O)C(=O)N[C@H](C(=O)N[C@@H](CC(=O)O)C(=O)N[C@@H](CCCCN)C(=O)N1CCC[C@H]1C(=O)N[C@@H](CO)C(=O)N[C@@H](CCC(N)=O)C(=O)N[C@@H](CCSC)C(=O)O)[C@@H](C)CC)[C@@H](C)O [30-residue fragment, H-Tyr-Ala-Val-Thr-Gly-Arg-Gly-Asp-Ser-Pro-Ala-Ser-Ser-Lys-Pro-IIe-Ser-IIe-Asn-Tyr-Arg-Thr-Glu-IIe-Asp-Lys-Pro-Ser-Gln-Met-OH] (H-YAVTGRGDSPASSKPISINYRTEIDKPSQM-OH)
cell-attachment activity compared with the entire sequence (cells [1]): the same activity as the entire sequence | attachment of cells to beads (cells [2]): induces attachment of cells to the beads
